Assay results reported in patent publication US9693556B2, “Herbicidal pyridazinone derivatives” (SYNGENTA LIMITED, priority 2011, dated 2017).

Tests used:
Assay type in all cases: in vivo
[1] = tested on: Solanum nigrum (SOLNI); test: Post-emergence herbicidal glasshouse test on Solanum nigrum; conditions: post-emergence; 1000 g/h; evaluated after 13 days
How it was run: (§1)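 Application rate 1000 g/h, formulated in acetone/water (50:50) with 0.5% Tween 20 and sprayed onto pots sown 1 day (pre-emergence) or 8 days (post-emergence) earlier. Evaluation at 13 days rated damage from 1 (0-19%) to 5 (80-100%).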

[2] = tested on: Amaranthus retoflexus (AMARE); test: Post-emergence herbicidal glasshouse test on Amaranthus retoflexus; conditions: post-emergence; 1000 g/h; evaluated after 13 days
How it was run: as §1

[3] = tested on: Echinochloa crus-galli (ECHCG); test: Pre-emergence herbicidal glasshouse test on Echinochloa crus-galli; conditions: pre-emergence; 1000 g/h; evaluated after 13 days
How it was run: as §1

[4] = tested on: Solanum nigrum (SOLNI); test: Pre-emergence herbicidal glasshouse test on Solanum nigrum; conditions: pre-emergence; 1000 g/h; evaluated after 13 days
How it was run: as §1

[5] = tested on: Alopecurus myosuroides (ALOMY); test: Post-emergence herbicidal glasshouse test on Alopecurus myosuroides; conditions: post-emergence; 1000 g/h; evaluated after 13 days
How it was run: as §1

[6] = tested on: Amaranthus retoflexus (AMARE); test: Pre-emergence herbicidal glasshouse test on Amaranthus retoflexus; conditions: pre-emergence; 1000 g/h; evaluated after 13 days
How it was run: as §1

[7] = tested on: Echinochloa crus-galli (ECHCG); test: Post-emergence herbicidal glasshouse test on Echinochloa crus-galli; conditions: post-emergence; 1000 g/h; evaluated after 13 days
How it was run: as §1

[8] = tested on: Ipomoea hederacea (IPOHE); test: Post-emergence herbicidal glasshouse test on Ipomoea hederacea; conditions: post-emergence; 1000 g/h; evaluated after 13 days
How it was run: as §1

[9] = tested on: Setaria faberi (SETFA); test: Post-emergence herbicidal glasshouse test on Setaria faberi; conditions: post-emergence; 1000 g/h; evaluated after 13 days
How it was run: as §1

[10] = tested on: Setaria faberi (SETFA); test: Pre-emergence herbicidal glasshouse test on Setaria faberi; conditions: pre-emergence; 1000 g/h; evaluated after 13 days
How it was run: as §1

[11] = tested on: Ipomoea hederacea (IPOHE); test: Pre-emergence herbicidal glasshouse test on Ipomoea hederacea; conditions: pre-emergence; 1000 g/h; evaluated after 13 days
How it was run: as §1

[12] = tested on: Alopecurus myosuroides (ALOMY); test: Pre-emergence herbicidal glasshouse test on Alopecurus myosuroides; conditions: pre-emergence; 1000 g/h; evaluated after 13 days
How it was run: as §1

Row | Compound | POST Application SOLNI herbicidal damage (five point scale) [1] | POST Application AMARE herbicidal damage (five point scale) [2] | PRE Application ECHCG herbicidal damage (five point scale) [3] | PRE Application SOLNI herbicidal damage (five point scale) [4] | POST Application ALOMY herbicidal damage (five point scale) [5] | PRE Application AMARE herbicidal damage (five point scale) [6] | POST Application ECHCG herbicidal damage (five point scale) [7] | POST Application IPOHE herbicidal damage (five point scale) [8] | POST Application SETFA herbicidal damage (five point scale) [9] | PRE Application SETFA herbicidal damage (five point scale) [10] | PRE Application IPOHE herbicidal damage (five point scale) [11] | PRE Application ALOMY herbicidal damage (five point scale) [12]
1 | C#Cn1ncc(-c2ccc(Cl)cc2S(C)(=O)=O)c(O)c1=O [Compound 2.011] | 5 (5=80-100% damage) | 5 (5=80-100% damage) | 5 (5=80-100% damage) | 5 (5=80-100% damage) | 5 (5=80-100% damage) | 5 (5=80-100% damage) | 5 (5=80-100% damage) | 5 (5=80-100% damage) | 5 (5=80-100% damage) | 5 (5=80-100% damage) | 5 (5=80-100% damage) | 5 (5=80-100% damage)
2 | CS(=O)(=O)c1ccccc1-c1cnn(CC(F)F)c(=O)c1O [Compound 2.012] | 5 (5=80-100% damage) | 5 (5=80-100% damage) | 5 (5=80-100% damage) | 5 (5=80-100% damage) | 5 (5=80-100% damage) | 5 (5=80-100% damage) | 5 (5=80-100% damage) | 5 (5=80-100% damage) | 5 (5=80-100% damage) | 5 (5=80-100% damage) | 5 (5=80-100% damage) | 5 (5=80-100% damage)
3 | CS(=O)(=O)c1cc(Cl)ccc1-c1cnn(C2CC2)c(=O)c1O [Compound 2.014] | 5 (5=80-100% damage) | 5 (5=80-100% damage) | 5 (5=80-100% damage) | 5 (5=80-100% damage) | 5 (5=80-100% damage) | 5 (5=80-100% damage) | 5 (5=80-100% damage) | 5 (5=80-100% damage) | 5 (5=80-100% damage) | 5 (5=80-100% damage) | 5 (5=80-100% damage) | 5 (5=80-100% damage)
4 | CS(=O)(=O)c1cc(C(F)(F)F)ccc1-c1cnn(C2CC2)c(=O)c1O [Compound 2.015] | 5 (5=80-100% damage) | 5 (5=80-100% damage) | 5 (5=80-100% damage) | 5 (5=80-100% damage) | 5 (5=80-100% damage) | 5 (5=80-100% damage) | 5 (5=80-100% damage) | 5 (5=80-100% damage) | 5 (5=80-100% damage) | 5 (5=80-100% damage) | 5 (5=80-100% damage) | 5 (5=80-100% damage)
5 | CCn1ncc(-c2ccc(C(F)(F)F)cc2S(C)(=O)=O)c(O)c1=O [Compound 2.016] | 5 (5=80-100% damage) | 5 (5=80-100% damage) | 5 (5=80-100% damage) | 5 (5=80-100% damage) | 5 (5=80-100% damage) | 5 (5=80-100% damage) | 5 (5=80-100% damage) | 5 (5=80-100% damage) | 5 (5=80-100% damage) | 5 (5=80-100% damage) | 5 (5=80-100% damage) | 5 (5=80-100% damage)
6 | CCn1ncc(-c2ccc(Cl)cc2S(C)(=O)=O)c(O)c1=O [Compound 2.017] | 5 (5=80-100% damage) | 5 (5=80-100% damage) | 5 (5=80-100% damage) | 5 (5=80-100% damage) | 5 (5=80-100% damage) | 5 (5=80-100% damage) | 5 (5=80-100% damage) | 5 (5=80-100% damage) | 5 (5=80-100% damage) | 5 (5=80-100% damage) | 5 (5=80-100% damage) | 5 (5=80-100% damage)
7 | Cc1c(-c2c(C3CC3)nn(C)c(=O)c2O)ccc(S(C)(=O)=O)c1C1=NOCC1 [Compound 2.019] | 5 (5=80-100% damage) | 5 (5=80-100% damage) | 5 (5=80-100% damage) | 5 (5=80-100% damage) | 5 (5=80-100% damage) | 5 (5=80-100% damage) | 4 (4=60-79% damage) | 5 (5=80-100% damage) | 4 (4=60-79% damage) | 2 (2=20-39% damage) | 4 (4=60-79% damage) | 4 (4=60-79% damage)
8 | C=Cc1nn(C)c(=O)c(O)c1-c1ccc(S(C)(=O)=O)c(C2=NOCC2)c1C [Compound 2.020] | 5 (5=80-100% damage) | 5 (5=80-100% damage) | 5 (5=80-100% damage) | 5 (5=80-100% damage) | 4 (4=60-79% damage) | 5 (5=80-100% damage) | 4 (4=60-79% damage) | 5 (5=80-100% damage) | 4 (4=60-79% damage) | 1 (1=0-19% damage) | 1 (1=0-19% damage) | 4 (4=60-79% damage)
